Patent publication US20170150719A1, “FUNGICIDAL PYRAZOLES AND THEIR MIXTURES” (E I DU PONT DE NEMOURS AND COMPANY, priority 2010, published 2017)

Tests used:
[1] = test system: Botrytis cinerea; experiment: Test A: tomato Botrytis, preventive spray on tomato seedlings, visual disease rating; conditions: Botrytis cinerea, in Solanum lycopersicum, read-out: Test A rating (disease control), tomato Botrytis; 100 = 100% disease control, 0 = no disease control relative to the controls
[2] = test system: Blumeria graminis f. sp. tritici; experiment: Test I: wheat powdery mildew, preventive spray on wheat seedlings, visual disease rating; conditions: Blumeria graminis, in Triticum aestivum, read-out: Test I rating (disease control), wheat powdery mildew; 100 = 100% disease control, 0 = no disease control relative to the controls
[3] = test system: Puccinia recondita f sp. tritici; experiment: Test L (L1-L5): wheat leaf rust, Compound 81 alone and in mixtures, observed and Colby expected control; type: in vivo; conditions: for Test L4 Obsd, disease control rating / Test L5 Obsd, disease control rating: wheat leaf rust
[4] = test system: Phytophthora infestans; experiment: whole plant or invertebrate; type: in vivo; conditions: Phytophthora infestans, in Solanum lycopersicum, read-out: Test C rating (disease control)

Cc1nn(C)c(Nc2c(F)cc(Cl)cc2F)c1-c1ccc(F)cc1Cl [Compound 81, N-(4-chloro-2,6-difluorophenyl)-4-(2-chloro-4-fluorophenyl)-1,3-dimethyl-1H-pyrazole-5-amine]
pest or weed control at 200 µg/mL [1]: 100% | pest or weed control at 200 µg/mL [2]: 100% | Test L1 Obsd ([3]; Compound 81 1 ppm alone): 88% | Test L2 Obsd ([3]; Compound 81 1 ppm alone): 9% | Test L3 Obsd ([3]; Compound 81 1 ppm alone): 9% | Test L1 Obsd ([3]; Compound 81 2 ppm alone): 68% | Test L2 Obsd ([3]; Compound 81 2 ppm alone): 27% | Test L3 Obsd ([3]; Compound 81 2 ppm alone): 9% | Test L1 Obsd ([3]; Compound 81 5 ppm alone): 91% | Test L2 Obsd ([3]; Compound 81 5 ppm alone): 74% | Test L3 Obsd ([3]; Compound 81 5 ppm alone): 41% | Test L1 Obsd ([3]; Compound 81 10 ppm alone): 98% | Test L2 Obsd ([3]; Compound 81 10 ppm alone): 91% | Test L3 Obsd ([3]; Compound 81 10 ppm alone): 88% | Test L4 Obsd, disease control rating ([3]; Compound 81 1 ppm alone): 0% | Test L5 Obsd, disease control rating ([3]; Compound 81 1 ppm alone): 18% | Test L4 Obsd, disease control rating ([3]; Compound 81 2 ppm alone): 27% | Test L5 Obsd, disease control rating ([3]; Compound 81 2 ppm alone): 27% | Test L4 Obsd, disease control rating ([3]; Compound 81 5 ppm alone): 68% | Test L5 Obsd, disease control rating ([3]; Compound 81 5 ppm alone): 55% | Test L4 Obsd, disease control rating ([3]; Compound 81 10 ppm alone): 88% | Test L5 Obsd, disease control rating ([3]; Compound 81 10 ppm alone): 82% | pest or weed control at 200 µg/mL [4]: 0%
